Measured values reported in patent publication US20250230138A1, “COMPOUNDS HAVING A T-STRUCTURE FORMED BY AT LEAST FOUR CYCLES FOR USE IN THE TREATMENT OF CANCER AND OTHER INDICATIONS” (TheRas, Inc., priority 2022, published 2025).
pIC50: −log10 of the molar value. Read-outs that look alike come from different tables or passages of the source.

Experiments:
[1] = target: Cys242 in human PIK3CA (157-299) (Homo sapiens (Human), UniProt P42336); experiment: Covalent modification assay using MALDI-TOF MS; assay type: biochemical; details: 4 h reaction time point; 1 μM protein target, 1:5 protein to compound ratio (compounds 853-1279)
Method in brief: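 PIK3CA (157-299), 3.33 or 1 μM in 20 mM HEPES, 150 mM NaCl, 2 mM MgCl2, pH 7.3, was incubated with compound at room temperature in the dark for 15 min, 30 min, 2 h or 4 h. Linear MALDI-TOF read-out; % modification = adduct peak height over summed heights of all protein species.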

pAKT in BT474 cells = experiment: Cell-based pAKT HTRF assay in BT474 cells; details: BT474 cells, 4 hr incubation, Compounds 1000-1279, read-out: pAKT inhibition IC50 in BT474 cells
Method in brief: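 Treatment lasts 4 hr in DMEM/10% FBS at 0.25% DMSO over nine 3-fold dilutions from 3 μM. The lysate is then probed by HTRF.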

Cys242 in human PIK3CA (157-299), sequence (P42336 157-299): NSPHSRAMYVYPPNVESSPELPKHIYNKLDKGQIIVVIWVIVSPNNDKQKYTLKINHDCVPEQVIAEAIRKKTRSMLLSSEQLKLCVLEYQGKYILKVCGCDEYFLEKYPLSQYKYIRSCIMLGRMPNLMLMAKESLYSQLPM

| pIC50 (pAKT in BT474 cells) | pIC50 (pAKT in BT474 cells; Homo sapiens, BT-474) | Compound | % of modification [1] |
| --- | --- | --- | --- |
| > 7.00 | – | C=CC(=O)N1CCn2nc(-c3nc(-c4ccc(OCCN(C)C)nc4)c4ccsc4c3-c3c(F)cc(F)cc3OCCOC)cc2C1C (stereo not shown) [Compound 1065] | A (percent of modification of PIK3CA protein ≥75%) |
| 6.00 to 7.00 | – | C=CC(=O)N1CCc2ccc(-c3nc(-c4ccc5c(c4)CNC(=O)C5)c4ccsc4c3-c3c(F)cc(F)cc3OCCOC)cc2C1 [Compound 1066] | D (percent of modification <25%) |
| < 6.00 | – | C=CC(=O)N1CCc2ccc(-c3nc(-c4ccc5c(c4)C(=O)NC5)c4ccsc4c3-c3c(F)cc(F)cc3OCCOC)cc2C1 [Compound 1067] | D (percent of modification <25%) |
| < 6.00 | – | C=CC(=O)N1CCc2ccc(-c3nc(-c4cnc(N(C)C)nc4)c4ccsc4c3-c3c(F)cc(F)cc3OCCOC)cc2C1 [Compound 1068] | D (percent of modification <25%) |
| < 6.00 | – | C=CC(=O)N1CCc2ccc(-c3nc(-c4cnc(N5CCN(C)CC5)nc4)c4ccsc4c3-c3c(F)cc(F)cc3OCCOC)cc2C1 [Compound 1069] | D (percent of modification <25%) |
| > 7.00 | – | C=CC(=O)N1CCc2nc(-c3nc(-c4ccc5c(c4)CNC(=O)C5)c4ccsc4c3-c3c(F)cc(F)cc3OCCOC)sc2C1 [Compound 1070] | A (percent of modification of PIK3CA protein ≥75%) |
| – | > 7.00 | C=CC(=O)N1Cc2cc(-c3nc(C45CC(C(=O)NC)(C4)C5)c4ccsc4c3-c3c(F)cc(F)cc3OCCOC)nn2C[C@H]1C [Compound 1071, 3-((S)-6-((R)-5-acryloyl-6-methyl-4,5,6,7-tetrahydropyrazolo[1,5-a]pyrazin-2-yl)-7-(2,4-difluoro-6-(2-methoxyethoxy)phenyl)thieno[3,2-c]pyridin-4-yl)-N-methylbicyclo[1.1.1]pentane-1-carboxamide] | B (50%<percent of modification <75%) |
| > 7.00 | – | C=CC(=O)N1CCn2nc(-c3nc(-c4cc5c(cc4OC)C(=O)NC5)c4ccsc4c3-c3c(F)cc(F)cc3OCCO)cc2C1C (stereo not shown) [Compound 1072] | A (percent of modification of PIK3CA protein ≥75%) |
| > 7.00 | – | C=CC(=O)N1CCn2nc(-c3nc(-c4ccc(OCCN5CCC5)cc4)c4ccsc4c3-c3c(F)cc(F)cc3OCCOC)cc2C1C (stereo not shown) [Compound 1073] | A (percent of modification of PIK3CA protein ≥75%) |
| > 7.00 | – | C=CC(=O)N1CCn2nc(-c3nc(-c4ccn5cncc5c4)c4ccsc4c3-c3c(F)cc(F)cc3OCCOC)cc2C1C (stereo not shown) [Compound 1074] | A (percent of modification of PIK3CA protein ≥75%) |
| > 7.00 | – | C=CC(=O)N1CCn2nc(-c3nc(-c4ccc5c(C)n(C)nc5c4)c4ccsc4c3-c3c(F)cc(F)cc3OCCO)cc2C1C (stereo not shown) [Compound 1076] | A (percent of modification of PIK3CA protein ≥75%) |
| > 7.00 | – | C=CC(=O)N1CCn2nc(-c3nc(-c4ccc(OCCN(C)C)c(F)c4)c4ccsc4c3-c3c(F)cc(F)cc3OCCOC)cc2C1C (stereo not shown) [Compound 1077] | A (percent of modification of PIK3CA protein ≥75%) |
| > 7.00 | – | C=CC(=O)N1CCn2nc(-c3nc(-c4ccc(OCC5CN(C)C5)cc4)c4ccsc4c3-c3c(F)cc(F)cc3OCCOC)cc2C1C (stereo not shown) [Compound 1078] | A (percent of modification of PIK3CA protein ≥75%) |
| > 7.00 | – | C=CC(=O)N1CCn2nc(-c3nc(-c4ccc5c(c4)CNC(=O)C5(C)C)c4ccsc4c3-c3c(F)cc(F)cc3OCCOC)cc2C1C (stereo not shown) [Compound 1079] | A (percent of modification of PIK3CA protein ≥75%) |
| > 7.00 | – | C=CC(=O)N1CCn2nc(-c3nc(-c4ccn(C5CN(C)C5)c(=O)c4)c4ccsc4c3-c3c(F)cc(F)cc3OCCOC)cc2C1C (stereo not shown) [Compound 1080] | A (percent of modification of PIK3CA protein ≥75%) |
| > 7.00 | – | C=CC(=O)N1CCn2nc(-c3nc(-c4cnc5c(c4)CN(CC(F)F)CC5)c4ccsc4c3-c3c(F)cc(F)cc3OCCOC)cc2C1C (stereo not shown) [Compound 1081] | A (percent of modification of PIK3CA protein ≥75%) |
| > 7.00 | – | C=CC(=O)N1CCn2nc(-c3nc(-c4ccc(N5CCN(C)CC5)cc4)c4ccsc4c3-c3c(F)cc(F)cc3OCCOC)cc2C1C (stereo not shown) [Compound 1082] | A (percent of modification of PIK3CA protein ≥75%) |
| > 7.00 | – | C=CC(=O)N1CCn2nc(-c3nc(-c4ccc5c(c4)CNC(=O)C54CC4)c4ccsc4c3-c3c(F)cc(F)cc3OCCOC)cc2C1C (stereo not shown) [Compound 1083] | A (percent of modification of PIK3CA protein ≥75%) |
| > 7.00 | – | C=CC(=O)N1CCn2nc(-c3nc(-c4cccc(CCN(C)C)c4)c4ccsc4c3-c3c(F)cc(F)cc3OCCOC)cc2C1C (stereo not shown) [Compound 1084] | A (percent of modification of PIK3CA protein ≥75%) |

| pIC50 (pAKT in BT474 cells) | pIC50 (pAKT in BT474 cells; Homo sapiens, BT-474) | Compound | % of modification [1] |
| --- | --- | --- | --- |
| > 7.00 | – | C=CC(=O)N1CCc2ncc(-c3nc(-c4ccc5c(c4)CCN(C)CC5)c4ccsc4c3-c3c(F)cc(F)cc3OCCOC)cc2C1 [Compound 1085] | A (percent of modification of PIK3CA protein ≥75%) |
| 6.00 to 7.00 | – | C=CC(=O)N1CCn2nc(-c3nc(N4CC5(CCNC(=O)C5)C4)c4ccsc4c3-c3c(F)cc(F)cc3OCCOC)cc2C1C (stereo not shown) [Compound 1088] | B (50%<percent of modification <75%) |
| > 7.00 | – | C=CC(=O)N1CCn2nc(-c3nc(-c4ccc(N5CCN(C)CC5)cc4)c4ccsc4c3-c3c(F)cc(F)cc3OCCO)cc2C1C (stereo not shown) [Compound 1089] | A (percent of modification of PIK3CA protein ≥75%) |
| > 7.00 | – | C=CC(=O)N1CCn2nc(-c3nc(-c4ccc(CC(=O)N(C)C)cc4)c4ccsc4c3-c3c(F)cc(F)cc3OCCOC)cc2C1C (stereo not shown) [Compound 1090] | A (percent of modification of PIK3CA protein ≥75%) |
| > 7.00 | – | C=CC(=O)N1CCn2nc(-c3nc(-c4ccc(OCCN(C)C)cc4F)c4ccsc4c3-c3c(F)cc(F)cc3OCCOC)cc2C1C (stereo not shown) [Compound 1091] | A (percent of modification of PIK3CA protein ≥75%) |
| > 7.00 | – | C=CC(=O)N1CCn2nc(-c3nc(-c4ccc5c(c4)[nH]c(=O)n5C)c4ccsc4c3-c3c(F)cc(F)cc3OCCOC)cc2C1C (stereo not shown) [Compound 1092] | A (percent of modification of PIK3CA protein ≥75%) |
| > 7.00 | – | C=CC(=O)N1CCn2nc(-c3nc(-c4cnc5c(c4)CN(C(C)C)CC5)c4ccsc4c3-c3c(F)cc(F)cc3OCCOC)cc2C1C (stereo not shown) [Compound 1093] | A (percent of modification of PIK3CA protein ≥75%) |
| > 7.00 | – | C=CC(=O)N1CCn2nc(-c3nc(-c4ccc(OC5CN(C)C5)cc4)c4ccsc4c3-c3c(F)cc(F)cc3OCCOC)cc2C1C (stereo not shown) [Compound 1094] | A (percent of modification of PIK3CA protein ≥75%) |
| > 7.00 | – | C=CC(=O)N1CCn2nc(-c3nc(-c4ccc(C(=O)NC5CN(C)C5)cc4)c4ccsc4c3-c3c(F)cc(F)cc3OCCOC)cc2C1C (stereo not shown) [Compound 1095] | A (percent of modification of PIK3CA protein ≥75%) |
| > 7.00 | – | C=CC(=O)N1CCn2nc(-c3nc(-c4ccc(C(=O)N5CCN(C)CC5)cc4)c4ccsc4c3-c3c(F)cc(F)cc3OCCOC)cc2C1C (stereo not shown) [Compound 1096] | A (percent of modification of PIK3CA protein ≥75%) |
| > 7.00 | – | C=CC(=O)N1CCn2nc(-c3nc(-c4cncc(OCCN(C)C)c4)c4ccsc4c3-c3c(F)cc(F)cc3OCCOC)cc2C1C (stereo not shown) [Compound 1099] | A (percent of modification of PIK3CA protein ≥75%) |
| > 7.00 | – | C=CC(=O)N1CCn2nc(-c3nc(-c4ccc(C(=O)N(C)C)cc4)c4ccsc4c3-c3c(F)cc(F)cc3OCCOC)cc2C1C (stereo not shown) [Compound 1100] | A (percent of modification of PIK3CA protein ≥75%) |
| > 7.00 | – | C=CC(=O)N1CCn2nc(-c3nc(-c4ccc5c(c4)c(C)nn5C)c4ccsc4c3-c3c(F)cc(F)cc3OCCO)cc2C1C (stereo not shown) [Compound 1101] | A (percent of modification of PIK3CA protein ≥75%) |
| > 7.00 | – | C=CC(=O)N1CCn2nc(-c3nc(-c4ccc(CC(=O)N5CC(F)(F)C5)cc4)c4ccsc4c3-c3c(F)cc(F)cc3OCCOC)cc2C1C (stereo not shown) [Compound 1102] | A (percent of modification of PIK3CA protein ≥75%) |
| > 7.00 | – | C=CC(=O)N1CCn2nc(-c3nc(-c4ccc(C(=O)NC)cc4)c4ccsc4c3-c3c(F)cc(F)cc3OCCOC)cc2C1C (stereo not shown) [Compound 1103] | A (percent of modification of PIK3CA protein ≥75%) |
| > 7.00 | – | C=CC(=O)N1CCn2nc(-c3nc(-c4ccc5c(c4)CN(C)CC5)c4ccsc4c3-c3c(F)cc(F)cc3OCCOC)cc2C1C (stereo not shown) [Compound 1104] | A (percent of modification of PIK3CA protein ≥75%) |
| > 7.00 | – | C=CC(=O)N1CCn2nc(-c3nc(-c4ccc5c(cnn5CCN(C)C)c4)c4ccsc4c3-c3c(F)cc(F)cc3OCCOC)cc2C1C (stereo not shown) [Compound 1105] | A (percent of modification of PIK3CA protein ≥75%) |
| 6.00 to 7.00 | – | C=CC(=O)N1CCc2ccc(-c3nc(-c4cnc(N5CCN(C)CC5)nc4)c4ccsc4c3-c3c(F)cc(F)cc3OCCOC)cc2C1 [Compound 1106] | A (percent of modification of PIK3CA protein ≥75%) |
| > 7.00 | – | C=CC(=O)N1CCc2ccc(-c3nc(-c4ccc5c(c4)C(=O)NC5)c4ccsc4c3-c3c(F)cc(F)cc3OCCOC)cc2C1 [Compound 1107] | A (percent of modification of PIK3CA protein ≥75%) |
